7 compounds from patent publication US8242118B2, “Arylsulfonamide derivatives for use as CCR3 antagonists in the treatment of inflammatory and immunological disorders” (Axikin Pharmaceuticals Inc., priority 2001, dated 2012) can be followed below.

For data set [1], the target named is T1, Human CCR3 (Homo sapiens, UniProt P51677).
T1 construct: The cloned CCR3 cDNA was constructed with pcDNA3 vector and transfected into a IC562 cell line; expressed in transfected cells
T1 sequence (P51677 1-355): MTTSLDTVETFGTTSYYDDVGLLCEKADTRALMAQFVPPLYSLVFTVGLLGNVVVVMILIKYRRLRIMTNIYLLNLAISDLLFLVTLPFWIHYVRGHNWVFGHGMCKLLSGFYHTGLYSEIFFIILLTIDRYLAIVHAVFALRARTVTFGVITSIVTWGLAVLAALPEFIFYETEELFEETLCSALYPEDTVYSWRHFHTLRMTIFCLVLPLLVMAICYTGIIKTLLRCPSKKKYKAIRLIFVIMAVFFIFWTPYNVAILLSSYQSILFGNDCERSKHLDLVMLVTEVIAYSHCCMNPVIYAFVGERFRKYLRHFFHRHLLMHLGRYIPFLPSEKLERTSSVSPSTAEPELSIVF
Briefly: Calcium mobilization assay, eotaxin-stimulated. In kind it is cell-based. The settings on record: human CCR3-transformed K562 cells, 10 nM eotaxin; compounds of about 40 to 90% purity; read-out: Activity grade Ca2+ (IC50 class). The method in brief: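 Eotaxin (10 nM final) triggered calcium flux, monitored 60 s with Fluo-3AM, in butyrate-pretreated (5 mM, 20–24 h) CCR3-transfected K562 cells. Compounds preincubated 10 min; percent inhibition per concentration yielded IC50.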
A general note: Calcium assays in cells follow changes in intracellular calcium, usually with a dye or a luminescent sensor.

Molecules are shown by their SMILES. pIC50: −log10 of the molar value.

A word on the pIC50: it is −log10 of the IC50, conventionally taken in molar units. Usually melting point stands for the temperature, or range, at which the solid turns liquid. `Cc1cc(C)cc(Oc2cc(C)c(N)cc2S(=O)(=O)N2CCNCC2)c1.Cl.Cl` [Example 5-7] yielded a melting point of 183 °C. Besides, the pIC50 in data set [1] is below 5.00.
With `Cc1cc(C)cc(Oc2ccc(F)cc2S(=O)(=O)N2CCNCC2)c1` [Example 6-3], the melting point lay within 116 to 118 °C. The pIC50 in data set [1] is above 6.00.
Turning to `Cc1cc(C)cc(Oc2ccc(S(=O)(=O)N(C)C)cc2S(=O)(=O)N2CCNCC2)c1.Cl` [Example 10-2], the melting point is 242 to 247 °C. The pIC50 in data set [1] is above 6.00.
For `N#Cc1ccc(Oc2cc(Cl)cc(Cl)c2)c(S(=O)(=O)N2CCCC3CN(Cc4ccccc4)CC32)c1` (centres unmarked) [Example 13-2] the same measures were 90 to 93 °C and 5.00 to 6.00.
`N#Cc1ccc(Oc2cc(Cl)cc(Cl)c2)c(S(=O)(=O)N2C[C@H]3C[C@@H]2CN3)c1` [Example 13-4] yielded a melting point of 311 to 312 °C. Moreover, in data set [1], the pIC50 is above 6.00.
For `N#Cc1ccc(Oc2cc(Cl)cc(Cl)c2)c(S(=O)(=O)N2C[C@@H]3CCCN[C@@H]3C2)c1` [Example 13-5], the melting point lay in the range of 163 to 165 °C. In addition, the pIC50 in data set [1] is above 6.00.
Compound `COCCCN1CCN(S(=O)(=O)c2cc(C#N)ccc2Oc2cc(Cl)cc(Cl)c2)CC1` [Example 13-7] gave a melting point of 240 °C. Besides, the pIC50 in data set [1] was above 6.00.
